ChEMBL document CHEMBL1146385, “Discovery of novel phenoxyacetic acid derivatives as antimycobacterial agents” (2007)
Values after ≈ are worked out from the molar mass of the structure shown.

The compounds below were run on Mycobacterium tuberculosis (assay: Antimycobacterial activity against Mycobacterium tuberculosis H37Rv ATCC 27294 by broth micro dilution assay).
Format: functional
Compound `COc1cc(C2=NN(C(N)=S)C(Cc3ccccc3)C2)ccc1OCC(=O)O` (configuration not stated) has an MIC of 6.25 µg/mL (≈ 15.6 µM).
`COc1cc(C2=NN(C(N)=S)C(c3ccccc3O)C2)ccc1OCC(=O)O` (configuration not stated) was tested, and the MIC was 0.58 µg/mL (≈ 1.44 µM).
`COc1cc(C2=NN(C(N)=O)C(c3ccccc3)C2)ccc1OCC(=O)O` (configuration not stated) gave an MIC of 6.25 µg/mL (≈ 16.9 µM).
`COc1cc(C2=NN(C(N)=O)C(c3ccc(C)cc3)C2)ccc1OCC(=O)O` (configuration not stated) was tested, and the MIC was 4.12 µg/mL (≈ 10.7 µM).
In the case of `COc1cc(C2=NN(C(N)=S)C(c3ccc(O)cc3)C2)ccc1OCC(=O)O` (configuration not stated), the MIC is reported as 0.2 µg/mL (≈ 0.498 µM).
`COc1cc(C2=NN(C(N)=O)C(c3ccccc3Cl)C2)ccc1OCC(=O)O` (configuration not stated) showed an MIC of 1.26 µg/mL (≈ 3.12 µM).
`COc1cc(C2=NN(C(N)=O)C(c3ccc(N)cc3)C2)ccc1OCC(=O)O` (configuration not stated) gave an MIC of 5.32 µg/mL (≈ 13.8 µM).
Work on `COc1cc(C2=NN(C(N)=S)C(c3ccc(C)cc3)C2)ccc1OCC(=O)O` (configuration not stated) yielded an MIC of 6.15 µg/mL (≈ 15.4 µM).
With `COc1cc(C2=NN(C(N)=S)C(c3ccc(Cl)cc3)C2)ccc1OCC(=O)O` (configuration not stated) the MIC was 0.06 µg/mL (≈ 0.143 µM).
In the case of `COc1cc(C2=NN(C(N)=S)C(c3ccccc3Cl)C2)ccc1OCC(=O)O` (configuration not stated), the MIC is reported as 0.12 µg/mL (≈ 0.286 µM).
In the case of `COc1cc(C2=NN(C(N)=O)C(c3ccc(F)cc3)C2)ccc1OCC(=O)O` (configuration not stated), the MIC is reported as 3.16 µg/mL (≈ 8.16 µM).
`COc1cc(C2=NN(C(N)=O)C(c3ccc(Cl)cc3)C2)ccc1OCC(=O)O` (configuration not stated) showed an MIC of 0.13 µg/mL (≈ 0.322 µM).
`COc1cc(C2=NN(C(N)=O)C(Cc3ccccc3)C2)ccc1OCC(=O)O` (configuration not stated) gave an MIC of 6.25 µg/mL (≈ 16.3 µM).
`COc1cc(C2=NN(C(N)=S)C(c3ccc(N)cc3)C2)ccc1OCC(=O)O` (configuration not stated) gave an MIC of 12.5 µg/mL (≈ 31.2 µM).
Work on `COc1cc(C2=NN(C(N)=S)C(c3cccc([N+](=O)[O-])c3)C2)ccc1OCC(=O)O` (configuration not stated) yielded an MIC of 6.25 µg/mL (≈ 14.5 µM).
Work on `COc1cc(C2=NN(C(N)=S)C(c3ccccc3)C2)ccc1OCC(=O)O` (configuration not stated) yielded an MIC of 6.25 µg/mL (≈ 16.2 µM).
In the case of `COc1cc(C2=NN(C(N)=O)C(c3ccccc3O)C2)ccc1OCC(=O)O` (configuration not stated), the MIC is reported as 0.58 µg/mL (≈ 1.51 µM).
`COc1cc(C2=NN(C(N)=O)C(c3cccc([N+](=O)[O-])c3)C2)ccc1OCC(=O)O` (configuration not stated) showed an MIC of 6.25 µg/mL (≈ 15.1 µM).
`COc1cc(C2=NN(C(N)=S)C(c3ccc(F)cc3)C2)ccc1OCC(=O)O` (configuration not stated) was tested, and the MIC was 0.96 µg/mL (≈ 2.38 µM).
`COc1cc(C2=NN(C(N)=O)C(c3ccc(O)cc3)C2)ccc1OCC(=O)O` (configuration not stated) showed an MIC of 1.23 µg/mL (≈ 3.19 µM).
For `COc1cc(C2=NN(C(N)=O)C(c3ccc([N+](=O)[O-])cc3)C2)ccc1OCC(=O)O` (configuration not stated), the MIC was 6.25 µg/mL (≈ 15.1 µM).
`COc1cc(C2=NN(C(N)=S)C(c3ccc([N+](=O)[O-])cc3)C2)ccc1OCC(=O)O` (configuration not stated) showed an MIC of 6.32 µg/mL (≈ 14.7 µM).
